Series [1] deals with 17b binding to monomeric core and full-length gp120. Kind of series: SPR of 17b binding to small molecule:gp120 complexes. Also on record: species or system HIV-1.
The target in series [2] is T1, gp120 from the YU2 strain (Human immunodeficiency virus type 1 group M subtype B, UniProt P35961). Kind of series: Isothermal titration calorimetry of binding to full-length gp120. Also on record: species or system HIV-1. The note with it: for −TΔS: calculated from ΔG = ΔH – TΔS; for change in heat capacity of binding: calculated from the temperature dependence of the binding enthalpies; for surface efficiency index (S.E.I.): calculated from KD and molecular polar surface area; for binding efficiency index (B.E.I.): calculated from KD and molecular weight.

Series [3] has as its system recombinant HIV-1YU2 on Cf2Th-CCR5 cells. Kind of series: Activation of viral infectivity in CD4-negative Cf2Th-CCR5 cells. Format: cell-based. The following applies: for Activation of Viral Infectivity: Cf2Th-CCR5 cells.
The test system of series [4] is amphotropic murine leukemia virus (A-MLV). The class given is cell-based. The note with it: for IC50: Murine leukemia virus, read-out: A-MLV IC50.
The next series concerns S375Wgp120 YU2 virus. Kind of series: Viral inhibition of the Phe43 cavity filling mutant virus. Format: cell-based, HIV-1.
The test system of a further series is Cf2Th-CD4-CCR5 cells. Description: Luminescent cell-based viability assay. The following applies: 1 to 100 μM, 48 hours. Also on record: species or system canine.
Series [5] has as its system 42 HIV-1 clade B and C isolates. Kind of series: Viral breadth: neutralization of HIV-1 Env-pseudoviruses in TZM-bl cells. The class given is cell-based. The following applies: 42 HIV-1 strains (clades B and C); for neutralization breadth among the viral isolates tested: IC50 < 100 μM.
The subject of series [6] is wild-type HIV-1YU2 virus. The class given is cell-based. The note with it: for IC50: read-out: HIV-1, YU-2 IC50, Table 2, Cf2Th-CD4/CCR5 cells, mean ± SD.
The target of series [7] is T1, gp120 from the YU2 strain. The following applies: ITC, 25 °C, ref Schon et al.[49] and Madani et al.[44], cited from earlier work. In general terms: Isothermal titration calorimetry measures the heat released or taken up as one component is titrated into another.
Series [8] relates to recombinant HIV-1YU2 on Cf2Th-CCR5 cells. The following applies: relative to 1, ref Schon et al.[49] and Madani et al.[44]; cited from earlier work.
The subject of series [9] is wild-type HIV-1YU2 virus. The note with it: read-out: HIV-1, YU-2 IC50; Cf2Th-CD4/CCR5 cells, 10,000 RT units; ref Schon et al.[49] and Madani et al.[44]; cited from earlier work.
Where [10] appears, read: Table 2, calculated from KD, 25 °C.

Read-outs that look alike come from different tables or passages of the source. Marks after values point to notes of the source that are not given here.

These results are taken from publication PMC3376652 (Journal of Medicinal Chemistry, 2012).

`CN1C(C)(C)CC(NC(=O)C(=O)Nc2ccc(Cl)c(F)c2)CC1(C)C` [Compound 4]: the “effect on binding of 17b to gp120” value in series [1] is “enhance binding of 17b to both the monomeric core and full-length gp120”. The ΔH result in [2] (Table 1, ITC, 25 °C) is listed as “–19.7 kcal/mol”. Further, the ΔG result in series [2] (Table 1, calculated from Kd, 25 °C) is reported as “–8.8 kcal/mol”. Further, the “−TΔS” value in [2] (Table 1) is “+10.9 kcal/mol”. Also, the “change in heat capacity of binding” value in series [2] is listed as −738 ± 36 cal/(K × mol). In addition, the “Activation of Viral Infectivity” value in [3] (Table 1, relative to 3) is recorded as 2.1 (relative to 3)^i.

For the molecule `N[C@H]1Cc2ccccc2[C@@H]1NC(=O)C(=O)Nc1ccc(Cl)c(F)c1` [(+)-6, N^1-(4-chloro-3-fluorophenyl)-N^2-[(1S,2S)-2-amino-2,3-dihydro-1H-inden-1-yl]-oxalamide], in series [1], the “effect on binding of 17b to gp120” value was “enhance binding of 17b to both the monomeric core and full-length gp120”. In series [2] (Table 2, ITC, 25 °C), the ΔH is -15.4 kcal/mol. The ΔG in series [2] (setting [10]) is -7.9 kcal/mol. Besides, the “inhibition of entry of A-MLV control virus (specificity, in words)” value (shortened to “inhibition of entry … (specificity, in words)”) in series [4] is listed as “inhibiting entry of the A-MLV control virus with a similar IC50 value”. For the same molecule, in [3], the “entry enhancement of YU2 viruses into CD4-negative, CCR5-expressing cells (in words)” value (shortened to “entry enhancement”) is reported as “enhanced viral entry in CD4-negative cells at levels comparable to those previously measured for 1–4”. The “Activation of Viral Infectivity” value in series [3] (Table 2, relative to 4) is reported as 1.4 ± 0.5 (relative to 4).

`N=C(N)N[C@H]1Cc2ccccc2[C@@H]1NC(=O)C(=O)Nc1ccc(Cl)c(F)c1.O=CO` [(+)-12, N^1-(4-chloro-3-fluorophenyl)-N^2-[(1S,2S)-2-guanidino-2,3-dihydro-1H-inden-1-yl]-oxalamide formate]: the “effect on binding of 17b to gp120” value in series [1] is “enhance binding of 17b to both the monomeric core and full-length gp120”. For the same molecule, the “sensitivity of YU2 S375Wgp120 virus to compound” value in the series on S375Wgp120 YU2 virus is reported as “completely resistant”. In addition, in the series on Cf2Th-CD4-CCR5 cells, the “in vitro cytotoxicity, inhibition of cell growth” value is listed as “did not demonstrate measurable inhibition of cell growth”. The molecule further displayed a ΔH in [2] (Table 2, ITC, 25 °C) of -14.9 kcal/mol. Moreover, the ΔG in series [2] (setting [10]) was -9.0 kcal/mol. Further, in series [2], the “surface efficiency index (S.E.I.)” value is 6.4, the “binding efficiency index (B.E.I.)” value is 16.8 and the “change in heat capacity of binding” value is recorded as −398 ± 5 cal/(K × mol). Also, in [5], the “percent of isolates with IC50 < 10 μM” value came out at 57% and the “neutralization breadth among the viral isolates tested” value came out at 100%. Besides, in series [4], the “inhibition of entry … (specificity, in words)” value is “neither compound was found to inhibit entry of A-MLV” and the IC50 was above 100 µM. For the same molecule, in the series on wild-type HIV-1YU2 virus [6], the IC50 was determined as 20 µM. Moreover, the “entry enhancement” value in [3] was “no appreciable entry enhancement”. Besides, in series [3] (Table 2, relative to 4), the “Activation of Viral Infectivity” value is listed as 0.1 ± 0.0 (19)^j (relative to 4).

On to `N[C@@H]1Cc2ccccc2[C@H]1NC(=O)C(=O)Nc1ccc(Cl)c(F)c1` [(−)-6], for which the “effect on binding of 17b to gp120” value in series [1] was “enhance binding of 17b to both the monomeric core and full-length gp120”. The molecule further came in with a Kd in series [2] (KD, Table 2, ITC, 25 °C, PBS pH 7.4, 2% DMSO) of 1.2 µM. The same molecule showed a ΔH in series [2] (Table 2, ITC, 25 °C) of -19.5 kcal/mol. Besides, the ΔG in series [2] (setting [10]) is -8.1 kcal/mol. In [2] (Table 2), the “−TΔS” value is “+11.4 kcal/mol”. In series [4], the “inhibition of entry … (specificity, in words)” value was “inhibiting entry of the A-MLV control virus with a similar IC50 value”. Besides, in series [3], the “entry enhancement” value is listed as “enhanced viral entry in CD4-negative cells at levels comparable to those previously measured for 1–4”. Further, the “Activation of Viral Infectivity” value in [3] (Table 2, relative to 4) is given as 1.0 ± 0.3 (relative to 4).

Consider `O=C(Nc1ccc(Cl)c(F)c1)C(=O)N[C@H]1c2ccccc2C[C@H]1O` [(+)-9, N^1-(4-chloro-3-fluorophenyl)-N^2-[(1S,2R)-2-hydroxy-2,3-dihydro-1H-inden-1-yl]oxalamide], for which the “inhibition of viral entry (in words, data not shown)” value with wild-type HIV-1YU2 virus [6] is “weak inhibition of viral entry”.

`CC1(C)CC(NC(=O)C(=O)Nc2ccc(Cl)c(F)c2)CC(C)(C)N1` [Compound 3]: in [7], the ΔG result is recorded as “–8.3 kcal/mol” and the ΔH result is on record as “–20.8 kcal/mol”. The “−TΔS” value in [7] (listed as JRC-I-191 (3)) is “+12.5 kcal/mol”. In addition, in [8], the “Activation of Viral Infectivity” value is 1.9 (relative to 1).

With `CC1(C)CC(NC(=O)C(=O)Nc2ccc(Cl)cc2)CC(C)(C)N1` [Compound 1], in series [7], the ΔG result was “–7.4 kcal/mol” and the ΔH result was “–24.5 kcal/mol”. Besides, in series [7] (listed as NBD-556 (1)), the “−TΔS” value is on record as “+17.1 kcal/mol”. For the same molecule, the “Activation of Viral Infectivity” value in [8] was 1.0. The “percent of isolates with IC50 < 10 μM” value in series [5] worked out at 12%. Besides, the IC50 in the series on wild-type HIV-1YU2 virus [9] was above 100 µM.

`N=C(N)N[C@@H]1Cc2ccccc2[C@H]1NC(=O)C(=O)Nc1ccc(Cl)c(F)c1.O=CO` [(−)-12]: the “effect on binding of 17b to gp120” value in [1] was “enhance binding of 17b to both the monomeric core and full-length gp120”. The “sensitivity of YU2 S375Wgp120 virus to compound” value in the series on S375Wgp120 YU2 virus is reported as “completely resistant”. The ΔH in [2] (Table 2, ITC, 25 °C) is -19.4 kcal/mol. Moreover, the ΔG in series [2] (setting [10]) was -9.0 kcal/mol. The “−TΔS” value in series [2] (Table 2) was “+10.4 kcal/mol”. Moreover, in series [2], the “surface efficiency index (S.E.I.)” value is given as 6.4, the “binding efficiency index (B.E.I.)” value is recorded as 16.8 and the “change in heat capacity of binding” value is reported as −817 ± 15 cal/(K × mol). Also, in [5], the “percent of isolates with IC50 < 10 μM” value was 52% and the “neutralization breadth among the viral isolates tested” value was determined as 100%. Moreover, in [4], the “inhibition of entry … (specificity, in words)” value is recorded as “neither compound was found to inhibit entry of A-MLV” and the IC50 was above 100 µM. In addition, in the series with wild-type HIV-1YU2 virus [6], the IC50 is 20 µM. The “entry enhancement” value in series [3] is recorded as “no appreciable entry enhancement”. The “Activation of Viral Infectivity” value in [3] (Table 2, relative to 4) is listed as 0.0 ± 0.0 (4)^j (relative to 4).

Take `CC1(C)CC(NC(=O)C(=O)Nc2ccc(Br)cc2)CC(C)(C)N1` [Compound 2]: in [7], the ΔG result is “–7.7 kcal/mol” and the ΔH result was “–22.8 kcal/mol”. Further, the “−TΔS” value in series [7] (listed as NBD-557 (2)) was “+15.1 kcal/mol”. The “Activation of Viral Infectivity” value in series [8] was 0.8 (relative to 1). Further, the IC50 in the series on wild-type HIV-1YU2 virus [9] was above 100 µM.

By IC50 is commonly meant the concentration that gives 50% inhibition. In general, Kd refers to the constant that tells how readily two partners part at equilibrium. Read a low Kd as higher affinity.
